According to PubChem BioAssay AID248 (DTP/NCI, 2004):
Inconclusive results and toxic doses are left out. Rule as the data show it: active = T/C of 150% or more; inactive = T/C below 125%.

System: L1210 leukemia ip in BDF1 mice, survival T/C
Test: NCI In Vivo Anticancer Drug Screen. Data for tumor model L1210 Leukemia (intraperitoneal) in B6D2F1 (BDF1) mice
Conditions: endpoint: mean survival time, higher = longer survival
Method in brief: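 Ratio derived from survival: compound-dosed mice over vehicle-dosed mice, all bearing a transplantable tumor.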

[1] = dose: 100.0 mg/kg/injection, schedule: Q04DX003 (ip), vehicle: saline
[2] = dose: 200.0 mg/kg/injection, schedule: Q04DX003 (ip), vehicle: saline
[3] = dose: 400.0 mg/kg/injection, schedule: Q04DX003 (ip), vehicle: saline
[4] = dose: 100.0 mg/kg/injection, schedule: Q01DX001 (ip), vehicle: carboxymethylcellulose (CMC)
[5] = dose: 200.0 mg/kg/injection, schedule: Q01DX001 (ip), vehicle: carboxymethylcellulose (CMC)
[6] = dose: 100.0 mg/kg/injection, schedule: Q04DX003 (ip), vehicle: Klucel (hydroxypropylcellulose) (HPC)
[7] = dose: 200.0 mg/kg/injection, schedule: Q04DX003 (ip), vehicle: Klucel (hydroxypropylcellulose) (HPC)
[8] = dose: 400.0 mg/kg/injection, schedule: Q04DX003 (ip), vehicle: Klucel (hydroxypropylcellulose) (HPC)
[9] = dose: 100.0 mg/kg/injection, schedule: Q01DX009 (ip), vehicle: saline
[10] = dose: 200.0 mg/kg/injection, schedule: Q01DX009 (ip), vehicle: saline
[11] = dose: 400.0 mg/kg/injection, schedule: Q01DX009 (ip), vehicle: saline
[12] = dose: 100.0 mg/kg/injection, schedule: Q01DX009 (ip), vehicle: Klucel (hydroxypropylcellulose) (HPC)
[13] = dose: 200.0 mg/kg/injection, schedule: Q01DX009 (ip), vehicle: Klucel (hydroxypropylcellulose) (HPC)
[14] = dose: 50.0 mg/kg/injection, schedule: Q01DX009 (ip), vehicle: saline with Tween-80
[15] = dose: 100.0 mg/kg/injection, schedule: Q01DX009 (ip), vehicle: saline with Tween-80
[16] = dose: 200.0 mg/kg/injection, schedule: Q01DX009 (ip), vehicle: saline with Tween-80
[17] = dose: 400.0 mg/kg/injection, schedule: Q01DX009 (ip), vehicle: Klucel (hydroxypropylcellulose) (HPC)
[18] = dose: 100.0 mg/kg/injection, schedule: Q01DX001 (ip), vehicle: saline
[19] = dose: 200.0 mg/kg/injection, schedule: Q01DX001 (ip), vehicle: saline
[20] = dose: 400.0 mg/kg/injection, schedule: Q01DX001 (ip), vehicle: saline
[21] = dose: 100.0 mg/kg/injection, schedule: Q04DX003 (ip), vehicle: saline with Tween-80
[22] = dose: 200.0 mg/kg/injection, schedule: Q04DX003 (ip), vehicle: saline with Tween-80

Measured: T/C

COc1ccc2ccccc2c1C(=O)CCC(=O)O
inactive: dose: 87.0 mg/kg/injection, schedule: Q04DX003 (ip), vehicle: Klucel (hydroxypropylcellulose) (HPC) 97 % of control | dose: 175.0 mg/kg/injection, schedule: Q04DX003 (ip), vehicle: Klucel (hydroxypropylcellulose) (HPC) 93 % of control | dose: 350.0 mg/kg/injection, schedule: Q04DX003 (ip), vehicle: Klucel (hydroxypropylcellulose) (HPC) 102 % of control

O=C(c1ccccc1)C1CCCCC1
inactive: dose: 100.0 mg/kg/injection, schedule: Q01DX001 (ip), vehicle: other 111 % of control | [1] 104 % of control | dose: 200.0 mg/kg/injection, schedule: Q01DX001 (ip), vehicle: other 100 % of control | [2] 96 % of control | dose: 400.0 mg/kg/injection, schedule: Q01DX001 (ip), vehicle: other 105 % of control | [3] 96 % of control

CC(C)(C)SC1CC(=O)OC1=O (configuration not stated)
inactive: dose: 87.5 mg/kg/injection, schedule: Q04DX003 (ip), vehicle: saline with Tween-80 102 % of control | dose: 175.0 mg/kg/injection, schedule: Q04DX003 (ip), vehicle: saline with Tween-80 106 % of control | dose: 350.0 mg/kg/injection, schedule: Q04DX003 (ip), vehicle: saline with Tween-80 109 % of control

O=P(NO)(Oc1ccccc1)Oc1ccccc1
inactive: dose: 50.0 mg/kg/injection, schedule: Q01DX001 (ip), vehicle: carboxymethylcellulose (CMC) 101 % of control | [4] 95 % of control | [5] 100 % of control

Cc1ccnc(/C=N/NC(N)=S)c1
inactive: dose: 100.0 mg/kg/injection, schedule: Q04DX002 (ip), vehicle: saline 108 % of control | dose: 200.0 mg/kg/injection, schedule: Q04DX002 (ip), vehicle: saline 86 % of control

CC(=O)NCCCCNS(=O)(=O)c1ccc(C)cc1
inactive: [6] 95 % of control | [7] 95 % of control | [8] 93 % of control

O=C(Nc1ccccc1F)Nc1ccc(Cl)cc1Cl
inactive: [9] 100 % of control | [10] 100 % of control | [11] 98 % of control

O=C(Nc1cccc(C(=O)Nc2ccc(C3=NCCN3)cc2)c1)Nc1cccc(C(=O)Nc2ccc(C3=NCCN3)cc2)c1
inactive: dose: 15.0 mg/kg/injection, schedule: Q01DX Z (ip), vehicle: methylcellulose (MC) 94 % of control | dose: 30.0 mg/kg/injection, schedule: Q01DX Z (ip), vehicle: methylcellulose (MC) 105 % of control | dose: 60.0 mg/kg/injection, schedule: Q01DX Z (ip), vehicle: methylcellulose (MC) 100 % of control | dose: 120.0 mg/kg/injection, schedule: Q01DX Z (ip), vehicle: methylcellulose (MC) 102 % of control | dose: 125.0 mg/kg/injection, schedule: Q01DX Z (ip), vehicle: water 93 % of control | dose: 250.0 mg/kg/injection, schedule: Q01DX Z (ip), vehicle: water 102 % of control | dose: 500.0 mg/kg/injection, schedule: Q01DX Z (ip), vehicle: water 101 % of control

O=C(O)/C(=C\c1ccccc1)c1cccc2ccccc12
inactive: [12] 100 % of control | [13] 98 % of control

CCOC(=O)c1cnc(C)nc1NCc1ccco1
inactive: [6] 103 % of control | [7] 95 % of control | [8] 98 % of control

COC1(c2ccc(Cl)cc2)OC(=O)C(c2ccccc2)=C1Cc1ccccc1 (configuration not stated)
inactive: dose: 12.5 mg/kg/injection, schedule: Q01DX009 (ip), vehicle: saline with Tween-80 93 % of control | dose: 25.0 mg/kg/injection, schedule: Q01DX009 (ip), vehicle: saline with Tween-80 89 % of control | [14] 100 % of control

c1cc2c3c(ccc4c3c1CCC4)CCC2
inactive: dose: 100.0 mg/kg/injection, schedule: Q04DX002 (ip), vehicle: gum acacia 91 % of control | dose: 200.0 mg/kg/injection, schedule: Q04DX002 (ip), vehicle: gum acacia 100 % of control | dose: 400.0 mg/kg/injection, schedule: Q04DX002 (ip), vehicle: gum acacia 95 % of control

CCN(CCO)c1ccc(N)cc1C
inactive: dose: 0.5 mg/kg/injection, schedule: Q04DX003 (ip), vehicle: saline 97 % of control | dose: 1.0 mg/kg/injection, schedule: Q04DX003 (ip), vehicle: saline 95 % of control | dose: 2.0 mg/kg/injection, schedule: Q04DX003 (ip), vehicle: saline 97 % of control | dose: 6.25 mg/kg/injection, schedule: Q04DX003 (ip), vehicle: saline 88 % of control | dose: 12.5 mg/kg/injection, schedule: Q04DX003 (ip), vehicle: saline 102 % of control

Brc1cscc1-c1c2ccccc2cc2ccccc12
inactive: [14] 106 % of control | [15] 98 % of control | [16] 98 % of control

Cc1ccc(C)c(NC(=O)OCCOc2ccccc2)c1
inactive: [12] 101 % of control | [1] 103 % of control | [13] 90 % of control | [2] 104 % of control | [17] 91 % of control | [3] 101 % of control

N#Cc1nc(/C=C\c2ccc3c(c2)OCO3)cnc1N
inactive: dose: 100.0 mg/kg/injection, schedule: Q01DX001 (ip), vehicle: Klucel (hydroxypropylcellulose) (HPC) 106 % of control | dose: 200.0 mg/kg/injection, schedule: Q01DX001 (ip), vehicle: Klucel (hydroxypropylcellulose) (HPC) 95 % of control | dose: 400.0 mg/kg/injection, schedule: Q01DX001 (ip), vehicle: Klucel (hydroxypropylcellulose) (HPC) 89 % of control

Oc1ccc(-c2ccc(O)c(O)c2)cc1O
inactive: dose: 75.0 mg/kg/injection, schedule: Q01DX001 (ip), vehicle: carboxymethylcellulose (CMC) 100 % of control | dose: 150.0 mg/kg/injection, schedule: Q01DX001 (ip), vehicle: carboxymethylcellulose (CMC) 95 % of control

Cc1cc[n+]([O-])cc1
inactive: [18] 100 % of control | [9] 98 % of control | [1] 94 % of control | [19] 98 % of control | [10] 101 % of control | [2] 102 % of control | [20] 98 % of control | [11] 98 % of control | [3] 98 % of control

O=C(Nc1ccccc1C(F)(F)F)OCCOc1ccc([N+](=O)[O-])cc1
inactive: [6] 89 % of control | [7] 87 % of control | [8] 92 % of control

Cc1ccc(S(=O)(=O)NNC(=O)c2ccccc2NCC(O)C(O)C(O)CO)cc1 (configuration not stated)
inactive: [4] 98 % of control | [5] 96 % of control | dose: 400.0 mg/kg/injection, schedule: Q01DX001 (ip), vehicle: carboxymethylcellulose (CMC) 98 % of control

CC(=O)Nc1cccc2ccc([N+](=O)[O-])cc12
inactive: [12] 96 % of control | [6] 94 % of control | [13] 98 % of control | [7] 105 % of control | [17] 98 % of control | [8] 98 % of control

Cc1nc(N)[nH]c(=O)c1CCCN=Cc1ccccc1
inactive: [12] 101 % of control | [13] 92 % of control | [17] 95 % of control

Nc1ccc2scnc2c1
inactive: [15] 98 % of control | [16] 98 % of control | dose: 400.0 mg/kg/injection, schedule: Q01DX009 (ip), vehicle: saline with Tween-80 92 % of control

COc1ccc(-c2c(COC(C)=O)c(COC(C)=O)c3n2CCC3)cc1
inactive: dose: 50.0 mg/kg/injection, schedule: Q01DX009 (ip), vehicle: Klucel (hydroxypropylcellulose) (HPC) 113 % of control

COC(C(OC(C)=O)C(OC(C)=O)C(OC(C)=O)C(COC(C)=O)OC(C)=O)n1cc(C)c(=O)[nH]c1=O (configuration not stated)
inactive: dose: 50.0 mg/kg/injection, schedule: Q01DX001 (ip), vehicle: saline 103 % of control | [18] 97 % of control | [19] 95 % of control | [20] 91 % of control

N#C/C(=C\c1cc(Cl)cc(Cl)c1O)c1ccc([N+](=O)[O-])cc1
inactive: [21] 90 % of control | [22] 92 % of control

CCCCC(O)(CCCC)C(CC)CC
inactive: [21] 108 % of control | [22] 99 % of control | dose: 400.0 mg/kg/injection, schedule: Q04DX003 (ip), vehicle: saline with Tween-80 101 % of control
